Source: publication PMC11678824 (2024)

Legend:
[1] = system: G4 Tel (DNA, G4) AGGGTTAGGGTTAGGGTTAGGG; test: fluorescence titration (ligand emission); details: 100 mM K+ (KCl) plus potassium phosphate, 20 mM potassium phosphate, pH 6.8, ligand 2 µM, apparent
[2] = system: ds26 (DNA, duplex) CAATCGGATCGAATTCGATCCGATTG; test: fluorescence titration (ligand emission); details: 100 mM K+ (KCl) plus potassium phosphate, 20 mM potassium phosphate, pH 6.8, ligand 2 µM, apparent
[3] = system: G4 Tel (DNA, G4) AGGGTTAGGGTTAGGGTTAGGG; test: fluorescent intercalator displacement (FID); details: 100 mM K+ (KCl) plus potassium phosphate; 20 mM potassium phosphate, pH 6.8; thiazole orange 3.5 µM displaced; DNA 1 µM
[4] = system: MYC (DNA, G4) TGAGGGTGGGTAGGGTGGGTAA; test: fluorescent intercalator displacement (FID); details: 100 mM K+ (KCl) plus potassium phosphate; 20 mM potassium phosphate, pH 6.8; thiazole orange 3.5 µM displaced; DNA 1 µM
[5] = system: KRAS (DNA, G4) AGGGCGGTGTGGGAATAGGGAA; test: fluorescent intercalator displacement (FID); details: 100 mM K+ (KCl) plus potassium phosphate; 20 mM potassium phosphate, pH 6.8; thiazole orange 3.5 µM displaced; DNA 1 µM
[6] = system: ds26 (DNA, duplex) CAATCGGATCGAATTCGATCCGATTG; test: fluorescent intercalator displacement (FID); details: 100 mM K+ (KCl) plus potassium phosphate; 20 mM potassium phosphate, pH 6.8; thiazole orange 3.5 µM displaced; DNA 1 µM
[7] = system: MYC (DNA, G4) TGAGGGTGGGTAGGGTGGGTAA; test: fluorescence titration (ligand emission); details: 100 mM K+ (KCl) plus potassium phosphate; 20 mM potassium phosphate, pH 6.8; ligand 2 µM; apparent; Hill n = 3.85
[8] = system: KRAS (DNA, G4) AGGGCGGTGTGGGAATAGGGAA; test: fluorescence titration (ligand emission); details: 100 mM K+ (KCl) plus potassium phosphate; 20 mM potassium phosphate, pH 6.8; ligand 2 µM; apparent; Hill n = 1.59
[9] = system: G4 Tel (DNA, G4) AGGGTTAGGGTTAGGGTTAGGG; test: UV-Vis titration (Soret red shift, hypochromism); details: 100 mM K+ (KCl) plus potassium phosphate; 20 mM potassium phosphate, pH 6.8; ligand 2 µM; up to 2.5 equiv. DNA
[10] = system: MYC (DNA, G4) TGAGGGTGGGTAGGGTGGGTAA; test: UV-Vis titration (Soret red shift, hypochromism); details: 100 mM K+ (KCl) plus potassium phosphate; 20 mM potassium phosphate, pH 6.8; ligand 2 µM; up to 2.5 equiv. DNA
[11] = system: KRAS (DNA, G4) AGGGCGGTGTGGGAATAGGGAA; test: UV-Vis titration (Soret red shift, hypochromism); details: 100 mM K+ (KCl) plus potassium phosphate; 20 mM potassium phosphate, pH 6.8; ligand 2 µM; up to 2.5 equiv. DNA
[12] = system: ds26 (DNA, duplex) CAATCGGATCGAATTCGATCCGATTG; test: UV-Vis titration (Soret red shift, hypochromism); details: 100 mM K+ (KCl) plus potassium phosphate; 20 mM potassium phosphate, pH 6.8; ligand 2 µM; up to 2.5 equiv. DNA

C[n+]1ccc(-c2c3nc(c(-c4cc[n+](C)cc4)c4ccc([n-]4)c(-c4cc[n+](C)cc4)c4nc(c(-c5cc[n+](C)cc5)c5ccc2[n-]5)C=C4)C=C3)cc1.[Ag+2]
KD ([1]; Hill n = 1.0): 630 ± 290 nM
KD ([2]; Hill n = 0.49): 10 ± 7 nM
DC50 [3]: 1120 ± 270 nM
DC50 [4]: 180 ± 30 nM
DC50 [5]: 280 ± 10 nM
DC50 [6]: 2000 ± 370 nM

C[n+]1ccc(-c2c3nc(c(-c4cc[n+](C)cc4)c4ccc([n-]4)c(-c4cc[n+](C)cc4)c4nc(c(-c5cc[n+](C)cc5)c5ccc2[n-]5)C=C4)C=C3)cc1.[Zn+2]
KD ([1]; Hill n = 1.35): 1300 ± 20 nM
KD [7]: 1320 ± 130 nM
KD [8]: 2720 ± 420 nM
KD ([2]; Hill n = 0.67): 2690 ± 20 nM
DC50 [3]: 340 ± 20 nM
DC50 [4]: 200 ± 20 nM
DC50 [5]: 370 ± 10 nM
DC50 [6]: 650 ± 40 nM

C[n+]1ccc(-c2c3nc(c(-c4cc[n+](C)cc4)c4ccc([nH]4)c(-c4cc[n+](C)cc4)c4nc(c(-c5cc[n+](C)cc5)c5ccc2[nH]5)C=C4)C=C3)cc1
binding [9]: yes
binding [10]: yes
binding [11]: yes
binding [12]: yes
